# Experimental data as given in ChEMBL document CHEMBL2321873, “1-(4-Phenylpiperazin-1-yl)-2-(1H-pyrazol-1-yl)ethanones as novel CCR1 antagonists” (Bioorg Med Chem Lett, 2013).
# Calls of active or inactive are those of the source. No cut-off for these calls is given here.
# Tests used:
# [1] = biological target: T1, C-C chemokine receptor type 10 (Homo sapiens) (UniProt P46092); test: Antagonist activity at CCR10 (unknown origin) assessed as inhibition of chemotaxis at 10 uM
# T1 sequence (whole entry): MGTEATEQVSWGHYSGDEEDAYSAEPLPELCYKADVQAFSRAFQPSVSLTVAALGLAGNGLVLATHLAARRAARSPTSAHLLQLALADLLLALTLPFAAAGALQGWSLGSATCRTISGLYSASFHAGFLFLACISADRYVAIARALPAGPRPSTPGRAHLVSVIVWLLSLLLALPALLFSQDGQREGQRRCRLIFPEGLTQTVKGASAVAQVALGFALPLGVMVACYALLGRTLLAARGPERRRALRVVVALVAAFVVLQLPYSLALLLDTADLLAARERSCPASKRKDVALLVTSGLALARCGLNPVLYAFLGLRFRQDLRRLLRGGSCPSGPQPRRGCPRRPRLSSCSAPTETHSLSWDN
# [2] = biological target: T2, C-X-C chemokine receptor type 1 (Homo sapiens) (UniProt P25024); test: Antagonist activity at CXCR1 (unknown origin) assessed as inhibition of chemotaxis at 10 uM
# T2 sequence (whole entry): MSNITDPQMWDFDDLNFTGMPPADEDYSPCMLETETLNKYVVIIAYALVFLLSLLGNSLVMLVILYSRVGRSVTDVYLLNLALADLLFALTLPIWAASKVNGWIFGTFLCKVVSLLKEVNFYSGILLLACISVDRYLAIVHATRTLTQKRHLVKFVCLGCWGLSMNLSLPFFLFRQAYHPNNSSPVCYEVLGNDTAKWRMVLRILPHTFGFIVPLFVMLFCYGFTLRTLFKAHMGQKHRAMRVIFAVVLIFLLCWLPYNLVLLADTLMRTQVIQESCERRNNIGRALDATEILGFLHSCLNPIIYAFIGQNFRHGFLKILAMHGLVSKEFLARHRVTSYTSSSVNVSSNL
# [3] = biological target: T2, C-X-C chemokine receptor type 1 (Homo sapiens); test: Binding affinity to CXCR1 (unknown origin) at 10 uM by radioligand displacement assay
# [4] = biological target: T3, C-C chemokine receptor type 7 (Homo sapiens) (UniProt P32248); test: Antagonist activity at CCR7 (unknown origin) assessed as inhibition of chemotaxis at 10 uM
# T3 sequence (whole entry): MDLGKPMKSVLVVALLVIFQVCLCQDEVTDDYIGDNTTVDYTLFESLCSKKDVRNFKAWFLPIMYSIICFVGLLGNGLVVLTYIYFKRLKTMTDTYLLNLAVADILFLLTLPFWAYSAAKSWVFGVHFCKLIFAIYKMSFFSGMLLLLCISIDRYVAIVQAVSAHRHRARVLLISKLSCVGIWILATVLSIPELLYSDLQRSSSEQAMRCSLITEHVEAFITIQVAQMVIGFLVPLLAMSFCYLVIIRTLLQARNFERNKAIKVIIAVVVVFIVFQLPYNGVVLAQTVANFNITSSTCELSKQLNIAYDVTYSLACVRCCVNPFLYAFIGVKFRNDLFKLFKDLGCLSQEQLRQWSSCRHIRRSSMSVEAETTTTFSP
# [5] = biological target: T4, C-C chemokine receptor type 4 (Homo sapiens) (UniProt P51679); test: Binding affinity to CCR4 (unknown origin) at 10 uM by radioligand displacement assay
# T4 sequence (whole entry): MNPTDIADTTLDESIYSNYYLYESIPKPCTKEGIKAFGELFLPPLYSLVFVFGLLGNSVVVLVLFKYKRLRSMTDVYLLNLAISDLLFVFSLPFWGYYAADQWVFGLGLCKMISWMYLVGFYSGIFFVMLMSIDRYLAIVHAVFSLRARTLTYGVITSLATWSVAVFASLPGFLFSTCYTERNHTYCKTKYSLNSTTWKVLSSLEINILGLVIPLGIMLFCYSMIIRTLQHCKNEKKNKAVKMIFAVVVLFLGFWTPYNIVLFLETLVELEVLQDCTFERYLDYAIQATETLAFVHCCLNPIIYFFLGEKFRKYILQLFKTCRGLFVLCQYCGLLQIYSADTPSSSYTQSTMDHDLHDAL
# [6] = biological target: T5, G protein-coupled receptor (Human herpesvirus 8) (UniProt Q76SF8); test: Antagonist activity at HHV8 ORF74 assessed as inhibition of chemotaxis at 10 uM; details: Human gammaherpesvirus 8
# T5 sequence (whole entry): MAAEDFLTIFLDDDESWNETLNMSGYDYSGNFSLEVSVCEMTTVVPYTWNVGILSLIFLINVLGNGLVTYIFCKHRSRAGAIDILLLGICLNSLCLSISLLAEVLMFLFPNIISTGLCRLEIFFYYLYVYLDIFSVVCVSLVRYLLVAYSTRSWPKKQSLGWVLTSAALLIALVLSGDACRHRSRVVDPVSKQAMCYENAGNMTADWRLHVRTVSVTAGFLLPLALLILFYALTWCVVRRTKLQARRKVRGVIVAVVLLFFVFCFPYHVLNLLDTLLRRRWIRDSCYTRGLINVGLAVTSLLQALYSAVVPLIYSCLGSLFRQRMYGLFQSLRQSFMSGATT
# [7] = biological target: T3, C-C chemokine receptor type 7 (Homo sapiens); test: Binding affinity to CCR7 (unknown origin) at 10 uM by radioligand displacement assay
# [8] = biological target: T6, C-C chemokine receptor type 9 (Homo sapiens) (UniProt P51686); test: Antagonist activity at CCR9 (unknown origin) assessed as inhibition of calcium flux at 10 uM; format: functional
# T6 sequence (whole entry): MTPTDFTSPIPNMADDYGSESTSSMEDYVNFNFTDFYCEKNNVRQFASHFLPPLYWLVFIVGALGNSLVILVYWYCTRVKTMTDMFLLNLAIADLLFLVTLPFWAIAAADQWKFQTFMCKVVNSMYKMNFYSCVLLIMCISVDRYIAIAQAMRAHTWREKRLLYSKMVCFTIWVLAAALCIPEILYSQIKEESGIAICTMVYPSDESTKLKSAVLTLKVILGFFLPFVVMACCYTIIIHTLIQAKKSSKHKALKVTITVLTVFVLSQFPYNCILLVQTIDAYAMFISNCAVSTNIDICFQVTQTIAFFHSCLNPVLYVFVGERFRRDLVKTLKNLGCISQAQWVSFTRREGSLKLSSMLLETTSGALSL
# [9] = system: Cytomegalovirus; test: Binding affinity to CMV US28 at 10 uM by radioligand displacement assay
# [10] = biological target: Cytochrome P450 2D6 (Homo sapiens, UniProt P10635); test: Competitive inhibition of CYP2D6 (unknown origin); format: ADME
# [11] = Oral bioavailability in Sprague-Dawley rat at 5 mg/kg; format: ADME, organism-based; details: in vivo
# [12] = biological target: C-X-C chemokine receptor type 6 (Homo sapiens) (UniProt O00574); test: Antagonist activity at CXCR6 (unknown origin) assessed as inhibition of calcium flux at 10 uM; format: functional
# [13] = biological target: T3, C-C chemokine receptor type 7 (Homo sapiens); test: Antagonist activity at CCR7 (unknown origin) assessed as inhibition of calcium flux at 10 uM; format: functional
# Sequence of Cytochrome P450 2D6 (P10635 whole entry): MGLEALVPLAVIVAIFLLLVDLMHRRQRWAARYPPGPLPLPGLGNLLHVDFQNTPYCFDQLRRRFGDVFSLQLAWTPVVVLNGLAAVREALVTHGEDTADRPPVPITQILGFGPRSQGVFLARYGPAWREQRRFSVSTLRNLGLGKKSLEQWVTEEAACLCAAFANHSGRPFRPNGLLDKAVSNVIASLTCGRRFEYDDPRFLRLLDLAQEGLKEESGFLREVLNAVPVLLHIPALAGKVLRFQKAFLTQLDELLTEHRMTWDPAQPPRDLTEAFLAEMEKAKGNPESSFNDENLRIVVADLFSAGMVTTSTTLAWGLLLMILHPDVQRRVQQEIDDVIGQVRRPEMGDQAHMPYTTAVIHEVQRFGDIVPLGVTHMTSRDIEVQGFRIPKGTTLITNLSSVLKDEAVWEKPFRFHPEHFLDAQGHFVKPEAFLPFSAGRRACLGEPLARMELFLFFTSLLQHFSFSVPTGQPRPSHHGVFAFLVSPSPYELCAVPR
# Sequence of C-X-C chemokine receptor type 6 (Homo sapiens) (O00574 whole entry, looked up): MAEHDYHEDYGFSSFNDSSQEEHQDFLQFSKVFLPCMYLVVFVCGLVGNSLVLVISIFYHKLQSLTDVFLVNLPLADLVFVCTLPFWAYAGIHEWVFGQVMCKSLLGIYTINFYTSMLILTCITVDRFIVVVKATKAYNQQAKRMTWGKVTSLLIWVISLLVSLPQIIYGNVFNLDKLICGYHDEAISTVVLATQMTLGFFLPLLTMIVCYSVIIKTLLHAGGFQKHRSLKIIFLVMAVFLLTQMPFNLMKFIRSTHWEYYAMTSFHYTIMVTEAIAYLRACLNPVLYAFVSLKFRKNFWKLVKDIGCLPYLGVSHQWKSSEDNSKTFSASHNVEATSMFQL
compound,measurement,setting,value
COc1cc(N2CCN(C(=O)Cn3nc(C(F)(F)F)c(Cl)c3C)CC2)ccc1Cl,inhibition,[1],inactive
same,inhibition,[2],inactive
same,Activity,[3],inactive
same,inhibition,[4],inactive
same,Activity,[5],inactive
same,inhibition,[6],inactive
same,Activity,[7],inactive
same,inhibition,[8],inactive
same,Activity,[9],inactive
same,IC50,[10],> 10 µM
same,bioavailability,[11],52%
same,inhibition,[12],inactive
same,inhibition,[13],inactive
